The record followed here is patent publication US20220127584A1, “Reactive persulfides mediate sulfur respiration in mitochondria via sulfide:quinone oxidoreductase” (Bio-Xcelerator, Inc., priority 2020, published 2022).

Data set [1] has as its system WT and Sqrdl^ΔN/ΔN MEFs. The data set can be described thus: MEF mitochondrial membrane potential (JC-1 staining). Type of data set: cell-based, mouse. How it is done: To determine the membrane potential of mitochondria under several experimental conditions, JC-1 staining was performed according to the method previously reported ^37,38. Accumulation of the cell-permeable JC-1 probe (Abcam) in mitochondria depends on the membrane potential and is associated with a fluorescence emission shift from green (emission 527 nm) to red (emission 590 nm). Briefly, WT and Sqrdl^ΔN/ΔN MEFs, cultured in 8-well multichamber slides (Matsunami, Osaka, Japan) coated with collagen, were treated with mitochondrial ETC inhibitors (rotenone, atpenin A5, and antimycin A) the and ADP/ATP carrier inhibitor CATR^23 as described in the figure legends. For JC-1 staining, cultured cells were washed with HKRB buffer (20 mM HEPES, 103 mM NaCl, 4.77 mM KCl, 0.5 mM CaCl2, 1.2 mM MgCl2, 1.2 mM KH2PO4, 25 mM NaHCO3, and 15 mM glucose, pH 7.3), incubated with 20 μM JC-1 at 37° C. for 20 min, rinsed twice with HKRB buffer, and examined with a confocal laser scanning microscope (Nikon C2 plus, with NIS-Elements 5.01 software). ImageJ software was used for image processing and calculation of JC-1 fluorescence intensities.

Data set [2] has as its system fission yeast (Schizosaccharomyces pombe). The data set is classed as cell-based. The settings on record: SQR-deficient yeast (Δhmt2) compared with WT yeast; increasing/high concentrations.
The subject of data set [3] is mitochondria from WT and Sqrdl^ΔN/ΔN MEFs. The data set can be described thus: Membrane potential of isolated mitochondria (TMRE time-lapse imaging). Further details: species or system mouse. The conditions noted are these: for membrane potential of isolated mitochondria: supplementation to isolated MEF mitochondria. As for the experimental part:
MEF mitochondria were isolated by differential centrifugation. WT and Sqrdl^ΔN/ΔN MEFs were homogenized in the extraction buffer (10 mM Tris-HCl, 250 mM sucrose, and 0.5 mM EGTA, pH 7.4) with a Dounce homogenizer (Teflon glass) and were centrifuged at 2,000 g at 4° C. for 5 min to remove nuclei and cell debris. The supernatants were centrifuged at 12,000 g at 4° C. for 10 min, and mitochondrial pellets were washed three times with buffer and kept at −80° C. until use.
To determine the membrane potential in isolated mitochondria under several experimental conditions, TMRE staining was performed according to the method previously reported^40. The TMRE fluorescence intensity at a maximum emission of 574 nm depends on the mitochondrial membrane potential. Briefly, mitochondria from WT and Sqrdl^ΔN/ΔN MEFs were adsorbed on the bottom of 8-well μ-Slides (Ibidi, Martinsreid, Germany) coated with poly-D-lysine (Sigma-Aldrich, St. Luis, Mo., USA), after which they were stained with 10 nM TMRE (Biotium, Fremont, Calif., USA) and 50 nM MitoTracker Green FM (Thermo Fisher Scientific, Waltham, Mass., USA) at 25° C. for 10 min. TMRE fluorescence intensity (561 nm excitation and 605±15 nm emission), which is positive with MitoTracker Green FM fluorescence, was measured in individual mitochondria by using the region of interest (ROI) tool of the confocal laser scanning microscope (Nikon C2 plus, with NIS elements version 5.01 software). […] Specifically, of 200 ROIs, the top 30 ROIs were selected for analysis of TMRE fluorescence intensity in response to TMPD/ascorbate, and their means and s.d. values were calculated.

In data set [4] the test system is isolated mitochondria from WT and Sqrdl^ΔN/ΔN MEFs. The data set can be described thus: Quantification of sulfur metabolites in isolated mitochondria (LC-ESI-MS/MS). Further details: species or system mouse. The conditions noted are these: addition to isolated mitochondria. How it is done: Yeast, mouse tissues, and MEFs were analyzed for the low-molecular-weight analytes cysteine (CysSH), cysteine hydropersulfide (CysSSH), glutathione (GSH), glutathione hydropersulfide (GSSH), bis-S (H2S), bis-SS (HSSH), cystine (CysSSCys), oxidized glutathione, or glutathione disulfide (GSSG), oxidized glutathione trisulfide (GSSSG), and thiosulfate (HS2O3^−) as previously described^9. Briefly, samples were homogenized with a Psychotron homogenizer (Microtec Co. Ltd.) or sonicator in ice-cold methanol in the presence of 5 mM β-(4-hydroxyphenyl)ethyl iodoacetamide (HPE-IAM). Homogenates were incubated at 37° C. for 20 min and then centrifuged at 15,000 rpm at 4° C. for 10 min. Supernatants were separated and diluted 10 times with 0.1% formic acid. Stable isotope-labeled internal standards dissolved in 0.1% formic acid solution were added to the samples to a final concentration of 25 nM. A sample of 10 μl was injected into the LC-ESI-MS/MS instrument (LCMS-8060). Various persulfide derivatives were identified and quantified by means of MRM, as previously described^9. Cell pellets were reconstituted in 0.1% SDS in PBS buffer, homogenized by sonication, and centrifuged again at 15,000 rpm at 4° C. for 10 min. […] Each analyte concentration was normalized to the measured protein concentration. […]

The test system of data set [5] is fission yeast (Schizosaccharomyces pombe). The data set can be described thus: Chronological life span of yeast. The data set is classed as cell-based. How it is done:
Three single colonies derived from each strain were analyzed, as previously described^31 with slight modification. Yeast cells were cultured in SC medium (at a starting OD600 of 0.1) at 30° C. with shaking. Measurement of cell viability began after 72 h of culture (day 0) and continued every 2-3 days by plating a fraction of the culture onto a fresh YPD plate (2% glucose, 0.5% yeast extract, 1% peptone, and 2% agar) to determine the number of colony-forming units (CFUs). […] Cell survival rates were calculated by normalizing the CFUs at each time point to the CFUs at day 0.

Data set [6] relates to mitochondria isolated from livers of WT and Sqrdl^ΔN/ΔN mice. The data set can be described thus: Oxygen consumption of liver mitochondria (Clark-type electrode). Further details: species or system mouse. The conditions noted are these: 10-μM NaHS supply. How it is done: Mitochondria were isolated from 4- to 6-week-old mice by using two-step differential centrifugations, as previously described^41 with minor modifications. In brief, after gallbladder removal, fresh liver specimens weighing 1.0-1.5 g were minced and homogenized in ice-cold isolation buffer (10 mM Tris/MOPS, 1 mM EGTA/Tris, and 200 mM sucrose, pH 7.4). When liver weight was less than 1 g, livers were pooled. Homogenate were centrifuged at 600 g and 4° C. for 10 min to remove cellular debris and nuclei. Supernatants containing mitochondrial fraction were then centrifuged at 7,000 g at 4° C. for 10 min. Obtained mitochondrial pellets were washed with new isolation buffer and underwent centrifugation again (7,000 g for 10 min). […] The protein concentration was determined with the BCA Protein Assay Kit (Thermo Fisher Scientific). Absorbance at 562 nm was measured with NanoDrop 2000 (Thermo Fisher Scientific).
Mitochondrial oxygen consumption was measured by using a Clark-type electrode (Oxytherm system; Hansatech Instruments, Norfolk, UK). […] The OCR through complex I was measured as a mitochondrial basic function by sequentially adding 2.5 mM malate/5 mM glutamate, 150 μM ADP, and 100 nM carbonyl cyanide 4-(trifluoromethoxy) phenylhydrazone (FCCP). The respiratory control index (RCI) was calculated by using the ratio of state 3 to state 4. […]

[7] abbreviates: WT MEFs, increasing concentrations in the culture media, SQR-dependent.

Regarding `C=C1[C@@H]2CC[C@H]3[C@]4(C)C[C@H](O[C@@H]5O[C@H](CO)[C@@H](OS(=O)(=O)O)[C@H](OS(=O)(=O)O)[C@H]5OC(=O)CC(C)C)CC(C(=O)O)(C(=O)O)[C@H]4CC[C@]3(C2)[C@H]1O` [CATR, carboxyatractyloside], the mitochondrial membrane potential entry is reported as “did not observe this increase” in data set [1] (Sqrdl^ΔN/ΔN MEFs, CATR treatment) and “increased the membrane potential” in data set [1] (WT MEFs, CATR treatment).

For `[Cl][Cd][Cl]` [Cd, CdCl2], the “susceptibility of yeast growth to the substance” value in data set [2] is on record as “enhanced susceptibility to Cd toxicity”.

For the compound `N[C@@H](CCC(=O)N[C@@H](CSSSC[C@H](NC(=O)CC[C@H](N)C(=O)O)C(=O)NCC(=O)O)C(=O)NCC(=O)O)C(=O)O` [GSSSG, glutathione trisulfide], the “membrane potential of isolated mitochondria” value in data set [3] is reported as “increased the membrane potential”. For the same compound, the “levels of glutathione hydropersulfide (GSSH)” value in data set [4] is listed as “increased levels of glutathione hydropersulfide (GSSH)”.

As to `[Na+].[Na+].[S-][S-]` [Na2S2, sodium disulfide], the “membrane potential of isolated mitochondria” value in data set [3] is on record as “results that were quite similar to those induced by NaHS”. In addition, the results for the chronological lifespan entry in data set [5] (SQR-deficient yeast) and in data set [5] (WT yeast) were “no effect” and “extended the lifespan”, respectively. In data set [1] (setting [7]), the mitochondrial membrane potential result was “elevation of membrane potential”.

Take `S` [NaHS, sodium hydrosulfide]: the oxygen consumption result in data set [6] was “induced a small oxygen consumption only in WT mitochondria”. The “membrane potential response to succinate, malate, and glutamate and to TMPD with ascorbate” value in data set [3] (3 μM NaHS, isolated mitochondria) is reported as “retained the membrane potential response”. Also, the “concentration at which the membrane potential response was halted” value in data set [3] (isolated mitochondria, data not shown) is recorded as “more than 30 μM”. In data set [3], the “membrane potential of isolated mitochondria” value is reported as “generated the membrane potential in an SQR-dependent manner”. In addition, the chronological lifespan result is recorded as “no effect” in data set [5] (SQR-deficient yeast) and “extended the lifespan” in data set [5] (WT yeast). Moreover, the mitochondrial membrane potential result in data set [1] (setting [7]) is listed as “elevation of membrane potential”.

As for `COc1[nH]c(=O)c(C(=O)[C@@H](C)C[C@H](C)[C@@H](Cl)CCl)c(O)c1OC` [atpenin A5], the “effect on CATR-induced increase in membrane potential” value (“effect on CATR-induced increase” for short) in data set [1] (WT MEFs) was “not significantly affected”.

On to `N[C@@H](CSSC[C@H](N)C(=O)O)C(=O)O` [cystine], for which, in data set [1] (setting [7]), the mitochondrial membrane potential entry is “elevation of membrane potential”.

On to `C=C(C)[C@H]1Cc2c(ccc3c2O[C@@H]2COc4cc(OC)c(OC)cc4[C@@H]2C3=O)O1` [rotenone], for which, in data set [1] (WT MEFs), the “effect on CATR-induced increase” value is recorded as “not significantly affected”.

On to antimycin A, for which the “effect on CATR-induced increase” value in data set [1] (WT MEFs) is recorded as “reduced”.
